Molecular target: T1, FLT3 D835Y (Homo sapiens, UniProt P36888, D835Y)
T1 sequence (P36888 27-993 D835Y): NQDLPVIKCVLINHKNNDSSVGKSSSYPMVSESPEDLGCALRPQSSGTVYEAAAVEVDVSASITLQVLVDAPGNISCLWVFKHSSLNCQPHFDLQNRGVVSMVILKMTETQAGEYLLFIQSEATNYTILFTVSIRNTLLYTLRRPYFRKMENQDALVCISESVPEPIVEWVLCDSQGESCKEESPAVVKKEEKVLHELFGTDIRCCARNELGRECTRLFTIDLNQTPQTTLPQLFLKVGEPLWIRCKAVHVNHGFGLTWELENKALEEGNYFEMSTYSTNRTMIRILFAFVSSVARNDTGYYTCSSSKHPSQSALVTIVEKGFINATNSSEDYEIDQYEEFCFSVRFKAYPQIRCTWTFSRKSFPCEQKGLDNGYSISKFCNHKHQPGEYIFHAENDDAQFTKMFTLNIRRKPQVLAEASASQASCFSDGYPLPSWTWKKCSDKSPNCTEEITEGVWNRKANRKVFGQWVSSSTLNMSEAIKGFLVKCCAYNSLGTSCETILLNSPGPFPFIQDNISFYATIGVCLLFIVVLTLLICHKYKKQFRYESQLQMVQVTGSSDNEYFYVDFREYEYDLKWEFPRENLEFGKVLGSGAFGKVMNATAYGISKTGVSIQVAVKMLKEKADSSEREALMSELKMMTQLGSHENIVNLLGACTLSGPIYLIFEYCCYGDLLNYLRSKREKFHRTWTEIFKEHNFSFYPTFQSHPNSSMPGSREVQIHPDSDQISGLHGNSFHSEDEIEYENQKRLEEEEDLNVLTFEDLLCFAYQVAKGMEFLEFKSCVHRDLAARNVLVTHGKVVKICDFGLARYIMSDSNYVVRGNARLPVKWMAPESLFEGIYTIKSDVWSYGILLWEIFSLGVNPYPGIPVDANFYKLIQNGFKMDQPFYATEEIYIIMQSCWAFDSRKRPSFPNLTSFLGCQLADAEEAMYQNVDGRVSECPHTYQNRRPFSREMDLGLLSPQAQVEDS
Assay: DiscoverX KINOMEscan active site-directed competition binding, FLT3 D835Y
Details: Table 12; no ATP
Source text: (§1) Kinase binding data were obtained for various exemplary compounds prepared according to Examples 1-8 using the DiscoverX KINOMEscan® active site-directed competition binding site-directed assay protocol described below. […] As a result, the data report thermodynamic interaction affinities (Kd values), rather than IC50 values that are dependent on ATP concentrations. The assay uses a DNA-tagged version of the protein kinase, and an immobilized ligand bound to a solid support. Compounds that directly or indirectly prevent kinase binding to the immobilized ligand reduce the amount of kinase captured on the solid support, which is detected using an ultra-sensitive qPCR method. Affinity constants reported from the assay have been reported to be independent of the immobilized ligand used that is coupled to the solid support (See supplemental information in Fabian, M. A. et. al., (2005) Nat. Biotechnol. 23, 329-336; Wodicka, L. M. et. al., (2010) Chem. Biol. 17, 1241-1249.)
Kinase-tagged T7 phage strains were prepared in an E. coli host derived from the BL21 strain. E. coli were grown to log-phase and infected with T7 phage and incubated with shaking at 32 °C until lysis. The lysates were centrifuged and filtered to remove cell debris. The remaining kinases were produced in HEK-293 cells and subsequently tagged with DNA for qPCR detection. Streptavidin-coated magnetic beads were treated with biotinylated small molecule ligands for 30 minutes at room temperature to generate affinity resins for kinase assays. The liganded beads were blocked with excess biotin and washed with blocking buffer (SeaBlock (Pierce), 1% BSA, 0.05% Tween 20, 1 mM DTT) to remove unbound ligand and to reduce non-specific binding. […] Test compounds were prepared as 111x stocks in 100% DMSO. Kds were determined using an 11-point 3-fold compound dilution series with three DMSO control points. All compounds for Kd measurements are distributed by acoustic transfer (non-contact dispensing) in 100% DMSO. The compounds were then diluted directly into the assays such that the final concentration of DMSO was 0.9%. All reactions were performed in polypropylene 384-well plates. Each was a final volume of 0.02 mL. The assay plates were incubated at room temperature with shaking for 1 hour and the affinity beads were washed with wash buffer (1×PBS, 0.05% Tween 20). The beads were then re-suspended in elution buffer (1×PBS, 0.05% Tween 20, 0.5 μM nonbiotinylated affinity ligand) and incubated at room temperature with shaking for 30 minutes. The kinase concentration in the eluates was measured by qPCR. Binding constants (Kds) were calculated with a standard dose-response curve using the Hill equation. The Hill Slope was set to −1. Curves were fitted using a non-linear least square fit with the Levenberg-Marquardt algorithm.
as §1, with “9-12” for “1-8”
Kinase-tagged T7 phage strains were prepared in an E. coli host derived from the BL21 strain. […]

| Kd | SMILES |
| --- | --- |
| 0.42 nM | COc1cn2ncc(-c3nc(N[C@H]4CNCC[C@@H]4F)c(C#N)cc3F)c2nc1C1CC1 [Compound 7, 6-(5-cyclopropyl-6-methoxypyrazolo[1,5-a]pyrimidin-3-yl)-5-fluoro-2-(((3S,4S)-4-fluoropiperidin-3-yl)amino)nicotinonitrile] |
| 0.21 nM | COc1cn2ncc(-c3nc(N[C@H]4CNCC[C@@H]4F)c(C#N)cc3F)c2nc1C(C)(C)O [Compound 10, 5-fluoro-2-(((3S,4S)-4-fluoropiperidin-3-yl)amino)-6-(5-(2-hydroxypropan-2-yl)-6-methoxypyrazolo[1,5-a]pyrimidin-3-yl)nicotinonitrile] |
| < 0.17 nM | COc1cn2ncc(-c3nc(N[C@H]4CNCC[C@@H]4F)c(F)cc3F)c2nc1C(C)(C)O [Compound 13, 2-(3-(3,5-difluoro-6-(((3S,4S)-4-fluoropiperidin-3-yl)amino)pyridin-2-yl)-6-methoxypyrazolo[1,5-a]pyrimidin-5-yl)propan-2-ol] |

Same assay, conditions: Table 18; no ATP

| SMILES | Kd |
| --- | --- |
| COc1cn2ncc(-c3ccnc(N[C@H]4CNCC[C@@H]4F)n3)c2nc1C1CC1 [Compound 7a, 4-(5-cyclopropyl-6-methoxypyrazolo[1,5-a]pyrimidin-3-yl)-N-((3S,4S)-4-fluoropiperidin-3-yl)pyrimidin-2-amine] | 0.79 nM |
| COc1cn2ncc(-c3cncc(N[C@H]4CNCC[C@@H]4F)n3)c2nc1C1CC1 [Compound 12a, 6-(5-cyclopropyl-6-methoxypyrazolo[1,5-a]pyrimidin-3-yl)-N-((3S,4S)-4-fluoropiperidin-3-yl)pyrazin-2-amine] | 0.62 nM |

Other lines, results leading:

| Kd | SMILES |
| --- | --- |
| < 0.17 nM | COc1cn2ncc(-c3nc(N[C@H]4CNCC[C@@H]4F)ncc3F)c2nc1C(C)(C)O [Compound 6a, 2-(3-(5-fluoro-2-(((3S,4S)-4-fluoropiperidin-3-yl)amino)pyrimidin-4-yl)-6-methoxypyrazolo[1,5-a]pyrimidin-5-yl)propan-2-ol] |
| < 0.17 nM | COc1cn2ncc(-c3nc(N[C@@H]4CCCNC4)ncc3F)c2nc1C1CC1 [Compound 14a, (R)-4-(5-cyclopropyl-6-methoxypyrazolo[1,5-a]pyrimidin-3-yl)-5-fluoro-N-(piperidin-3-yl)pyrimidin-2-amine] |
| 0.34 nM | COc1cn2ncc(-c3nc(N[C@H]4CNCC[C@@H]4F)ncc3F)c2nc1C1CC1 [Compound 15a, 4-(5-cyclopropyl-6-methoxypyrazolo[1,5-a]pyrimidin-3-yl)-5-fluoro-N-((3S,4S)-4-fluoropiperidin-3-yl)pyrimidin-2-amine] |

— patent US20260374773A1, “MULTI-CYCLIC IRAK AND FLT3 INHIBITING COMPOUNDS AND USES THEREOF” (CHILDREN'S HOSPITAL MEDICAL CENTER, priority 2022, published 2026)
